Counter-ions that a name gives are not always drawn.

The subject of experiment [1] is Pseudomonas aeruginosa ATCC 27853. Kind of experiment: Standard bacterial EPI assay: MIC of levofloxacin in the absence and presence of the EPI. Particulars: P. aeruginosa ATCC 27853. Type of experiment: cell-based. On the procedure: (§1) MIC assays were conducted in accordance with Clinical and Laboratory Standards Institute (CLSI) guidelines for broth microdilution. A 96-well plate containing cation-adjusted Mueller-Hinton (CAMH broth with 2-fold serial dilution of compounds was inoculated with log-phase bacterial at 5×10^5 CFU/mL. The final volume in each well was 100 μL. Each compound was tested in duplicate. The microtiter plates were incubated in an aerobic environment for 18 hours at 37° C. Then the bacterial growth was tested by reading the plate with a VersaMax plate reader (Molecular Devices, Inc.) at 600 nm. The MIC was defined as the lowest compound concentration that inhibited 90% of bacteria growth.
The EPI assay for the purposes of these studies represents a MIC assay in which the MIC of the antibiotic against the bacteria is tested in the presence of an experimental efflux pump inhibitor (EPI). […] Using serial dilutions of the EPI, its enhancement of antibiotic activity was then evaluated. […]
The impact of Example 2 on the MIC values of two test antibiotics (levofloxacin and cefepime) against P. aeruginosa ATCC 27853 were evaluated using our standard EPI assay. […]
In our standard EPI assay, the MIC of the test antibiotic is determined in the absence and presence of sub-inhibitory concentrations of the EPI. […]

A further experiment deals with P. aeruginosa ATCC 27853. The experiment in a line: Intrinsic MIC assay (CLSI broth microdilution). The class given is cell-based. Particulars: Pseudomonas aeruginosa, ATCC27853, compound alone. On the procedure: as §1
The intrinsic MIC of the experimental EPIs was tested with the method described. The 2-fold serial dilution begins with 100 μg/mL of tested compound in the first column of the 96-well plates. The following Gram-negative bacterial strains were included in these assays: […]
(In general: Broth dilution looks for growth in wells or tubes with falling amounts of substance.)

Turning to `NCCC[C@H](N)CNC(=O)c1[nH]c2cc(-c3ccc(F)cc3)ccc2c1C1CC1` [Example 2, (S)-3-cyclopropyl-N-(2,5-diaminopentyl)-6-(4-fluorophenyl)-1H-indole-2-carboxamide dihydrochloride], in experiment [1] (6.25 μg/mL (½×MIC) of the EPI), the “MIC of levofloxacin in the presence of the EPI” value is 0.032 µg/mL. Also, in experiment [1] (6.25 μg/mL of the EPI), the “fold reduction of the MIC of levofloxacin relative to the absence of EPI” value was found to be 32 fold. The lowest concentration to inhibit growth with P. aeruginosa ATCC 27853 (MIC) was 12.5 µg/mL.
